Each structure is given as a SMILES string.

For the assay, the system named is lung microvasculature. The assay is described as follows: Micro CT scanning of lungs from the SuHx model. It is filed as in vivo, rat. The following applies: SuHx rats; sildenafil treatment. As to the method:
Endothelial progenitor cells are reported to preserve microvasculature in MCT treated lung (Zhao et al. Cir. Res. 96:442-450 (2005)). Therefore, micro CT scanning was performed on the lungs from the SuHx model treated with Nx control, vehicle, sildenafil, and 1 million and 5 million GMP1-HE cells.

Consider `CCCc1nn(C)c2c(=O)[nH]c(-c3cc(S(=O)(=O)N4CCN(C)CC4)ccc3OCC)nc12` [sildenafil], for which the “capillary perfusion (microCT)” value is “modest improvement”.
